Data from BindingDB's records for patent US12043645 (Memorial Sloan-Kettering Cancer Center, 2024).

Target: Set1/Ash2 histone methyltransferase complex subunit ASH2 (Homo sapiens, UniProt Q9UBL3)
Assay: Filter-paper Assay
Method: This assay relies on Whatman P-81 filter paper, which binds peptides but not SAM. Protein Methyl Transferases (PMTs) transfer 3H-Me of [3H-Me]-SAM to peptide substrates and the resultant 3H-methylated, filter-paper-bound peptide is quantified with a scintillation counter. Briefly, 6 μL of the methylation reaction was spotted onto Whatman P-81 phosphocellulose filter paper (1.2×1.2 cm2) to immobilize the 3H-labeled peptide. After drying in air for 20 min, the filter paper was immersed into 20 mL of 50 mM Na2CO3/NaHCO3 buffer (pH=9.2), and washed 5 times for 10 min each time. The washed filter paper was then transferred to a 20 mL scintillation vial containing 1 mL of distilled water and 10 mL of Ultima Gold scintillation cocktail or 7 mL scintillation vial containing 0.5 mL od distilled water and 5 mL of scintillation cocktail (PerkinElmer). The radioactivity was quantified by a Beckman LS6000IC liquid scintillation counter.

Sequence of Set1/Ash2 histone methyltransferase complex subunit ASH2 (Q9UBL3 whole entry, one chain of several): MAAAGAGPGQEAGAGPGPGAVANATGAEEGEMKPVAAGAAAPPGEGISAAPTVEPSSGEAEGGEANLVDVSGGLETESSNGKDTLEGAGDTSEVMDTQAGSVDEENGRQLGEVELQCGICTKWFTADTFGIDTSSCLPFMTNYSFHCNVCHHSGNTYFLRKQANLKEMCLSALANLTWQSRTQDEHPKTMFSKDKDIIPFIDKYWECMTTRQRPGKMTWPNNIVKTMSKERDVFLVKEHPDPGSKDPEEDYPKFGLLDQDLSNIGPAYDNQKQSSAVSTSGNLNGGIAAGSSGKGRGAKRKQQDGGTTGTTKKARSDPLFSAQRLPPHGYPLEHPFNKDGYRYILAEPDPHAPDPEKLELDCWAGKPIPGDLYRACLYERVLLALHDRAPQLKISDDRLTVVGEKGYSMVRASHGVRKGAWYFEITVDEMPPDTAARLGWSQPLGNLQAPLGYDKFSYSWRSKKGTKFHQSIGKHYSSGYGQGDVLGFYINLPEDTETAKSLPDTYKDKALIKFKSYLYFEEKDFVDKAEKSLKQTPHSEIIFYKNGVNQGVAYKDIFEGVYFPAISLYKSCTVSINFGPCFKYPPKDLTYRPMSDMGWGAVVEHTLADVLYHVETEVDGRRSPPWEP

IC50 [nM]	SMILES
2200	Nc1ncnc2c1ncn2C1OC(C[C@H](CC[C@H](N)C(=O)NCCc2cc(-c3ccccc3)[nH]n2)Nc2ccccc2)C(O)C1O (stereo partly drawn) [US12043645, Example 5]
390	COc1ccc(CCNC(=O)[C@@H](N)CC[C@@H](CC2OC(n3cnc4c(N)ncnc43)C(O)C2O)Nc2ccccc2)cc1 (stereo partly drawn) [US12043645, Example 1]
20	CCCNC(=O)[C@@H](N)CC[C@@H](CC1OC(n2cnc3c(N)ncnc32)C(O)C1O)Nc1ccccc1 (stereo partly drawn) [US12043645, Example 7]
